Here are results for nine compounds from PubChem BioAssay (NCI).

The structures appear in SMILES notation.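 A five-concentration, 48-hour dose response in 96-well plates underlies each endpoint, interpolated linearly between surrounding concentrations. Abbreviation: GI50, concentration required for 50% inhibition of growth. At the TGI there is no net growth.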 A value given as a limit tells only on which side of the number the result lay.

Some test systems named below: HOP-92 NSCLC; SF-268 CNS; U251 CNS; SF-539 CNS; A549 NSCLC; 786-0 renal; HOP-62 NSCLC; OVCAR-4 ovarian; MDA-MB-435; NCI-H226 lung.
What all share (test): NCI-60 cell line screen, 48 h

On to `COc1cc2c3c(n(CCCN(CCN)CCCn4c5c(c6cc(OC)c(OC)cc6c4=O)C(=O)c4cc6c(cc4-5)OCO6)c(=O)c2cc1OC)-c1cc2c(cc1C3=O)OCO2`, for which the GI50 is 1.29 µM with HOP-92 NSCLC; 0.794 µM with SF-268 CNS; 0.354 µM in the experiment with U251 CNS; 0.238 µM in the experiment with SF-539 CNS; 2.72 µM with A549 NSCLC; 0.314 µM in the experiment on 786-0 renal. Moreover, the GI50 in the experiment with HOP-62 NSCLC was 0.33 µM; with OVCAR-4 ovarian, 13.3 µM; in the experiment with MDA-MB-435, 2.22 µM; with NCI-H226 lung, 0.449 µM. Further, the TGI with HOP-92 NSCLC is 15 µM; with SF-268 CNS, more than 29.3 µM; with U251 CNS, 5.99 µM; in the experiment with SF-539 CNS, 0.731 µM; with A549 NSCLC, more than 100 µM; with 786-0 renal, 1.51 µM. The TGI is 1.64 µM with HOP-62 NSCLC, more than 83.8 µM in the experiment on OVCAR-4 ovarian, 23.2 µM in the experiment on MDA-MB-435 and 2.76 µM in the experiment on NCI-H226 lung.
As for `COc1cc2cc(C(=O)CCC(=O)O)sc2cc1OC`, the GI50 is 37.3 µM in the experiment on HOP-92 NSCLC; more than 100 µM in the experiment with SF-268 CNS; more than 100 µM in the experiment on U251 CNS; 16.5 µM in the experiment on SF-539 CNS; more than 100 µM in the experiment on A549 NSCLC; more than 100 µM in the experiment with 786-0 renal. The GI50 in the experiment on HOP-62 NSCLC was more than 100 µM; in the experiment on OVCAR-4 ovarian, more than 100 µM; in the experiment on MDA-MB-435, more than 100 µM; with NCI-H226 lung it was 47.4 µM. For the same compound, the TGI with HOP-92 NSCLC, with SF-268 CNS, in the experiment with U251 CNS, with SF-539 CNS, in the experiment on A549 NSCLC and in the experiment on 786-0 renal was more than 100 µM each time. Moreover, the TGI in the experiment with HOP-62 NSCLC, in the experiment on OVCAR-4 ovarian, in the experiment on MDA-MB-435 and with NCI-H226 lung was more than 100 µM throughout.
With `Cc1nc(-c2ccccc2)c(Cc2ccccc2O)c(=O)[nH]1`, the TGI with HOP-92 NSCLC, with SF-268 CNS, with U251 CNS, in the experiment on SF-539 CNS, in the experiment with A549 NSCLC and in the experiment on 786-0 renal was more than 100 µM in each case. Further, the TGI in the experiment with HOP-62 NSCLC, in the experiment with OVCAR-4 ovarian, in the experiment on MDA-MB-435 and with NCI-H226 lung was more than 100 µM throughout.
Consider `N#Cc1ncc(-c2ccc(C(F)(F)F)cc2)c(NCc2cc(C(F)(F)F)cc(C(F)(F)F)c2)n1`, for which the GI50 in the experiment on HOP-92 NSCLC was 2.14 µM; in the experiment with SF-268 CNS, 8.17 µM; in the experiment on U251 CNS, 3.66 µM; with SF-539 CNS, 8.5 µM; with A549 NSCLC, 3.11 µM; with 786-0 renal, 6.39 µM. The GI50 in the experiment on HOP-62 NSCLC is 4.73 µM; in the experiment on OVCAR-4 ovarian, 3.33 µM; in the experiment on MDA-MB-435 it was 3.42 µM; in the experiment on NCI-H226 lung, 4.85 µM. For the same compound, the TGI in the experiment on HOP-92 NSCLC is 5.74 µM; with SF-268 CNS, more than 100 µM; in the experiment on U251 CNS, 53.5 µM; in the experiment on SF-539 CNS, more than 100 µM; in the experiment with A549 NSCLC, 21.1 µM; with 786-0 renal it was 96.3 µM. The TGI with HOP-62 NSCLC is 39.2 µM; in the experiment on OVCAR-4 ovarian, more than 100 µM; in the experiment with MDA-MB-435 it was more than 100 µM; in the experiment with NCI-H226 lung, more than 100 µM.
`CC(=O)N1N=C(c2ccc(Nc3nc(Nc4ccc(Cl)cc4)nc(Nc4ccc(Cl)cc4)n3)cc2)CC1c1ccc([N+](=O)[O-])cc1` (stereo not given): the GI50 in the experiment with HOP-92 NSCLC is 5.18 µM; in the experiment with SF-268 CNS, 7.14 µM; in the experiment on U251 CNS, 7.42 µM; in the experiment with SF-539 CNS, 6 µM; in the experiment with A549 NSCLC, 5.57 µM; in the experiment on 786-0 renal, 3.8 µM. In addition, the GI50 is 13.5 µM in the experiment on HOP-62 NSCLC, 3.85 µM with OVCAR-4 ovarian, 4.59 µM in the experiment on MDA-MB-435 and 12.9 µM in the experiment with NCI-H226 lung. The TGI in the experiment on HOP-92 NSCLC was 54.7 µM; in the experiment with SF-268 CNS, more than 100 µM; in the experiment on U251 CNS, more than 100 µM; with SF-539 CNS it was 25.5 µM; in the experiment with A549 NSCLC, more than 86.5 µM; in the experiment with 786-0 renal, 26.3 µM. Besides, the TGI was 47.4 µM in the experiment on HOP-62 NSCLC, more than 100 µM in the experiment on OVCAR-4 ovarian, 36 µM with MDA-MB-435 and more than 82.7 µM in the experiment on NCI-H226 lung.
Consider `CCC[CH2][Sn]([CH2]CCC)([O]C(=O)c1cc(F)ccc1F)[O][Sn]([CH2]CCC)([CH2]CCC)[O]C(=O)c1cc(F)ccc1F`, for which the GI50 with HOP-92 NSCLC was 0.148 µM; in the experiment with SF-268 CNS, 0.216 µM; with U251 CNS, 0.175 µM; in the experiment with SF-539 CNS it was 0.386 µM; with A549 NSCLC, 1.77 µM; in the experiment on 786-0 renal it was 0.158 µM. Further, the GI50 with HOP-62 NSCLC is 1.84 µM; in the experiment with OVCAR-4 ovarian, 0.513 µM; with MDA-MB-435, 0.446 µM; in the experiment on NCI-H226 lung, 0.354 µM. In addition, the TGI with HOP-92 NSCLC came to 0.491 µM; in the experiment on SF-268 CNS, 0.798 µM; in the experiment with U251 CNS, 0.584 µM; in the experiment on SF-539 CNS, 1.22 µM; in the experiment on A549 NSCLC, 3.68 µM; with 786-0 renal, 0.405 µM. The TGI was found to be 3.27 µM in the experiment with HOP-62 NSCLC, 1.73 µM in the experiment with OVCAR-4 ovarian, 1.67 µM with MDA-MB-435 and 1.25 µM in the experiment on NCI-H226 lung.
With `O=C1c2cccnc2C(=O)C2C3C=CC(C3)C12` (stereo not given), the TGI came out at 27 µM in the experiment on HOP-92 NSCLC; 24.3 µM in the experiment with SF-268 CNS; 16.7 µM in the experiment on U251 CNS; 13.4 µM in the experiment with SF-539 CNS; 50.8 µM with A549 NSCLC; 24.2 µM with 786-0 renal. Moreover, the TGI came to 20.4 µM with HOP-62 NSCLC, 21.7 µM in the experiment on OVCAR-4 ovarian, 5.7 µM in the experiment with MDA-MB-435 and 32 µM in the experiment on NCI-H226 lung.
As to `CCOC(=O)c1sc2ncn(Cc3cccc(Br)c3)c(=O)c2c1C`, the GI50 in the experiment with HOP-92 NSCLC is 31.1 µM; with SF-268 CNS, 54.9 µM; in the experiment on U251 CNS, 31.7 µM; in the experiment on SF-539 CNS, 84.5 µM; with A549 NSCLC, 56.2 µM; with 786-0 renal it was 33.9 µM. Besides, the GI50 is 19.4 µM in the experiment on HOP-62 NSCLC, 30.9 µM in the experiment with OVCAR-4 ovarian, 54.1 µM with MDA-MB-435 and 19.8 µM with NCI-H226 lung. In addition, the TGI with HOP-92 NSCLC, in the experiment on SF-268 CNS, with U251 CNS, with SF-539 CNS, in the experiment on A549 NSCLC and with 786-0 renal was more than 100 µM throughout. For the same compound, the TGI with HOP-62 NSCLC was 65.4 µM; with OVCAR-4 ovarian it was 81.3 µM; in the experiment with MDA-MB-435, more than 100 µM; in the experiment on NCI-H226 lung, 85 µM.
Consider `O=c1c2c3c(sc2n2c(-c4cc(-c5ccccc5)no4)nnc2n1Cc1ccccc1)CCCC3`, for which the GI50 in the experiment on HOP-92 NSCLC is 6.66 µM; with SF-268 CNS it was 15.6 µM; in the experiment with U251 CNS, 17.3 µM; in the experiment with SF-539 CNS it was 19.2 µM; with A549 NSCLC, 10.5 µM; in the experiment with 786-0 renal, 20.5 µM. In addition, the GI50 with HOP-62 NSCLC is 14.8 µM; in the experiment on OVCAR-4 ovarian it was 19.2 µM; with MDA-MB-435, 24.1 µM; in the experiment on NCI-H226 lung it was 20 µM. The TGI was more than 100 µM with HOP-92 NSCLC; 68.3 µM in the experiment with SF-268 CNS; more than 100 µM with U251 CNS; 72.2 µM in the experiment with SF-539 CNS; more than 86.5 µM in the experiment on A549 NSCLC; 98.9 µM in the experiment with 786-0 renal. Besides, the TGI in the experiment on HOP-62 NSCLC is 57 µM; in the experiment on OVCAR-4 ovarian, more than 100 µM; with MDA-MB-435, more than 91.9 µM; in the experiment with NCI-H226 lung it was 58.3 µM.
